{"source": "paper PMC4550849", "about": "(Scientific Reports, 2015)", "key": {"[1]": {"test_system": "RAW264.7 cells treated with anthrax lethal toxin (PA + LF)"}, "[2]": {"test_system": "host lysosomal cathepsin B", "settings": "cited from earlier work"}, "SARS CoV Strain Urbani": {"test_system": "SARS CoV Strain Urbani", "experiment": "microbe, parasite or virus in culture", "format": "cell-based, SARS coronavirus", "settings": "Severe acute respiratory syndrome coronavirus, Vero 76"}, "Poliovirus: WM3": {"test_system": "Poliovirus: WM3", "experiment": "microbe, parasite or virus in culture", "format": "cell-based, Poliovirus 3", "settings": "Enterovirus C, LLC-MK2"}, "Ebola virus (Kikwit)": {"test_system": "Ebola virus (Kikwit)", "experiment": "microbe, parasite or virus in culture", "format": "cell-based", "settings": "Zaire ebolavirus, HeLa"}, "[3]": {"test_system": "RAW264.7 cells treated with PA + FP59", "format": "cell-based, mouse"}, "Ebola": {"test_system": "Ebola", "settings": "in vivo; cited from earlier work"}, "[4]": {"test_system": "RAW264.7 cells treated with Cholera toxin", "experiment": "cells", "format": "cell-based", "settings": "Mus musculus, RAW264.7, 6 h"}, "MEK-2": {"test_system": "MEK-2", "format": "cell-based, mouse"}, "[5]": {"test_system": "C32 cells treated with diphtheria toxin", "format": "cell-based, human"}, "[6]": {"test_system": "PA83 binding to RAW264.7 cells", "format": "cell-based, mouse"}, "Ebola virus": {"test_system": "Ebola virus", "settings": "cited from earlier work"}, "[7]": {"test_system": "anthrax toxin (LF + PA) lethality", "parameters": "species or system Sprague-Dawley rats", "settings": "rat, in vivo"}, "in vitro [8]": {"experiment": "in vitro", "settings": "African green monkey"}, "[9]": {"test_system": "RAW264.7 cells treated with Pseudomonas aeruginosa Exotoxin A", "experiment": "cells", "format": "cell-based", "settings": "Mus musculus, RAW264.7, 6 h"}, "[10]": {"test_system": "Venezuelan equine encephalitis virus (VEEV, Strain TC-83)", "experiment": "microbe, parasite or virus in culture", "format": "cell-based"}, "LF": {"biological_target": "LF (Bacillus anthracis, UniProt P15917)", "sequence (P15917 34-809 limits assumed)": "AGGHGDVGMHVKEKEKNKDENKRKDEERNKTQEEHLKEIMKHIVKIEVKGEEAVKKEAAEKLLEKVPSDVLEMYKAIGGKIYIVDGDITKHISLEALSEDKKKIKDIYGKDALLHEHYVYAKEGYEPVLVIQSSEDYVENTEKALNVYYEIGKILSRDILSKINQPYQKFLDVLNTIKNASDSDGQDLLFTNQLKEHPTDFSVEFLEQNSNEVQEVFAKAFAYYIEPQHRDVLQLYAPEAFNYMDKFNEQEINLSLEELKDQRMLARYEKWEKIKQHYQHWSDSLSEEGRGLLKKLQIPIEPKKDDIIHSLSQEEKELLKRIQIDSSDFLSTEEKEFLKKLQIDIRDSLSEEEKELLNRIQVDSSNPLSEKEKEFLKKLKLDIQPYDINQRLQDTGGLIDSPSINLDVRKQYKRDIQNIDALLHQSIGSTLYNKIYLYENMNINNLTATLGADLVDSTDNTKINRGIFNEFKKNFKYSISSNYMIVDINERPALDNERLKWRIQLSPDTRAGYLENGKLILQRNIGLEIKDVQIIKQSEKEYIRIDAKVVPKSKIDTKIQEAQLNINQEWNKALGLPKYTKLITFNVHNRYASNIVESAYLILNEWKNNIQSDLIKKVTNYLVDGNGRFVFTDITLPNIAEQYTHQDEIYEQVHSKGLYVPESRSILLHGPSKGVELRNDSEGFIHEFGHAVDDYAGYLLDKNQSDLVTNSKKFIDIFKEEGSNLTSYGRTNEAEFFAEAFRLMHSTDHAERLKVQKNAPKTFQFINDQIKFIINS", "format": "biochemical"}, "[11]": {"test_system": "Human Cytomegalovirus (CMV, Strain AD169)", "experiment": "microbe, parasite or virus in culture", "format": "cell-based", "settings": "Human betaherpesvirus 5, AD169, HFF, 336 h"}, "Rabies (Strain Flury)": {"test_system": "Rabies (Strain Flury)", "experiment": "microbe, parasite or virus in culture", "format": "cell-based", "settings": "Lyssavirus rabies, BHK-21, 120 h"}, "HeLa cells": {"test_system": "HeLa cells", "settings": "human"}, "[12]": {"test_system": "Respiratory syncytial virus (RSV): Strain A-2", "experiment": "microbe, parasite or virus in culture", "format": "cell-based", "settings": "human respiratory syncytial virus, HEp-2"}, "[13]": {"test_system": "Herpes Simplex Virus 1 (HSV-1, Strain E-377)", "experiment": "microbe, parasite or virus in culture", "format": "cell-based", "settings": "Human alphaherpesvirus 1, HFF, 72 h"}, "cathepsin B": {"biological_target": "cathepsin B (Homo sapiens, UniProt P07858)", "format": "binding"}, "[14]": {"test_system": "Plasmodium falciparum phosphoethanolamine methyltransferase", "settings": "cited from earlier work"}, "in vitro [15]": {"experiment": "in vitro", "settings": "human"}, "Junin (JUNV)": {"test_system": "Junin (JUNV)", "experiment": "microbe, parasite or virus in culture", "format": "cell-based, Junin virus", "settings": "Mammarenavirus juninense"}, "Chikungunya (CHIV)": {"test_system": "Chikungunya (CHIV)", "experiment": "microbe, parasite or virus in culture", "format": "cell-based"}, "Ebola virus (EBOV)": {"test_system": "Ebola virus (EBOV)", "experiment": "microbe, parasite or virus in culture", "format": "cell-based", "settings": "Zaire ebolavirus, HFF-1, 48 h"}, "in vitro [16]": {"experiment": "in vitro", "settings": "rhesus monkey"}, "[17]": {"biological_target": "purified human cathepsin B (Homo sapiens, UniProt P07858)", "format": "biochemical", "settings": "4, 8, 16, 33, or 66 μM; without pre-incubation; pH 5.8"}, "[18]": {"test_system": "RAW264.7 cells treated with Clostridium difficile toxin B", "experiment": "cells", "format": "cell-based", "settings": "Mus musculus, RAW264.7, 6 h"}, "[19]": {"test_system": "acidic vesicles in RAW264.7 cells", "format": "cell-based, mouse", "settings": "AQ 1 h, 500 ng/ml PA 1 h"}, "caspase-1": {"test_system": "caspase-1", "format": "cell-based, mouse"}, "in vitro [20]": {"experiment": "in vitro", "settings": "hamster"}, "[21]": {"settings": "human, in vivo, cited from earlier work"}, "[22]": {"test_system": "RAW264.7 cells treated with anthrax lethal toxin (PA + LF)", "experiment": "cells", "settings": "Mus musculus, RAW264.7, read-out: EC50, reduction of anthrax toxin-mediated cytotoxicity"}, "endosomal acidification": {"test_system": "endosomal acidification", "settings": "cited from earlier work"}, "in vitro [23]": {"experiment": "in vitro", "settings": "human", "remark": "listed apart in the source"}}}
{"compound": "C=C[C@H]1C[N@@]2CC[C@H]1C[C@@H]2[C@@H](O)c1ccnc2ccc(OC)cc12", "note": "[Quinidine]", "values": [{"measurement": "protection of host cells against anthrax toxin killing (cell viability, MTT)", "setting": "[1]", "result": "none"}]}
{"compound": "CA-074", "values": [{"measurement": "accumulation of PA pores in late endosomes", "setting": "[2]", "result": "elevated accumulation"}, {"measurement": "cellular sensitivity to LF-PA", "setting": "[2]", "result": "reduction of cellular sensitivity"}, {"measurement": "release of LF from the late endosomes into the cytoplasm", "setting": "[2]", "result": "inability of LF to be released"}]}
{"compound": "COc1cc(NC(C)CCCN)c2ncccc2c1", "note": "(centres unmarked) [Primaquine]", "values": [{"measurement": "protection of host cells against anthrax toxin killing (cell viability, MTT)", "setting": "[1]", "result": "none"}]}
{"compound": "C=C[C@H]1C[N@@]2CC[C@H]1C[C@@H]2[C@@H](O)c1ccnc2ccccc12", "note": "[Cinchonine]", "values": [{"measurement": "protection of host cells against anthrax toxin killing (cell viability, MTT)", "setting": "[1]", "result": "none"}]}
{"compound": "CCN(CC)Cc1cc(Nc2ccnc3cc(Cl)ccc23)ccc1O", "note": "[AQ, Amodiaquine]", "values": [{"measurement": "EC50", "setting": "SARS CoV Strain Urbani", "result": 2.4, "unit": "µM"}, {"measurement": "EC50", "setting": "Poliovirus: WM3", "result": "> 100", "unit": "µM"}, {"measurement": "EC50", "setting": "Ebola virus (Kikwit)", "result": 2.4, "unit": "µM"}, {"measurement": "EC50", "setting": "Ebola virus (Kikwit); 24 h", "result": 2, "unit": "µM"}, {"measurement": "EC50", "setting": "Ebola virus (Kikwit); 48 h", "result": 4, "unit": "µM"}, {"measurement": "sensitivity of cells to PA + FP59", "setting": "[3]", "result": "less sensitive"}, {"measurement": "reduction of Ebola mortality risk", "setting": "Ebola", "result": 31, "unit": "%"}, {"measurement": "EC50", "setting": "[4]", "result": "> 66.7", "unit": "µM"}, {"measurement": "LF-PA-mediated cleavage of MEK2", "setting": "MEK-2", "result": "completely prevented"}, {"measurement": "inhibition of diphtheria toxin cell killing (multiplex hit)", "setting": "[5]", "result": "inhibited"}, {"measurement": "binding of PA83 to cells", "setting": "[6]", "result": "did not block"}, {"measurement": "proteolytic processing of PA to generate PA63", "setting": "[6]", "result": "did not block"}, {"measurement": "Ebola virus pathogenicity in cells", "setting": "Ebola virus", "result": "inhibit Ebola virus pathogenicity in cells"}, {"measurement": "rats saved after lethal anthrax toxin challenge", "setting": "[7]", "result": 40, "unit": "%"}, {"measurement": "survival after lethal anthrax toxin challenge", "setting": "[7]", "result": "all survived"}, {"measurement": "CC50", "setting": "in vitro [8]", "result": 32, "unit": "µM"}, {"measurement": "protection of host cells against anthrax toxin killing (cell viability, MTT)", "setting": "[1]", "result": "completely protect"}, {"measurement": "sensitivity of host cells to PA83 + LF and PA63 + LF", "setting": "[1]", "result": "equally reduces sensitivity"}, {"measurement": "EC50", "setting": "[9]", "result": "> 66.7", "unit": "µM"}, {"measurement": "EC50", "setting": "[10]", "result": 3.2, "unit": "µM"}, {"measurement": "proteolytic activity of LF on MAPKK peptide (emission at 523 nm)", "setting": "LF", "result": "does not block"}, {"measurement": "EC50", "setting": "[11]", "result": "> 60", "unit": "µM"}, {"measurement": "EC50", "setting": "Rabies (Strain Flury)", "result": 5.7, "unit": "µM"}, {"measurement": "CC50", "setting": "HeLa cells", "result": "> 50", "unit": "µM"}, {"measurement": "EC50", "setting": "[12]", "result": 32, "unit": "µM"}, {"measurement": "EC50", "setting": "[13]", "result": "> 60", "unit": "µM"}, {"measurement": "binding to cathepsin B (STD difference spectrum)", "setting": "cathepsin B; 2 mM AQ, 20 μM cathepsin B (100:1)", "result": "binding to the enzyme"}, {"measurement": "STD effect, atom H4", "setting": "cathepsin B; relative to H4 atom (100%)", "result": 100, "unit": "%"}, {"measurement": "STD effect, atom H5", "setting": "cathepsin B; relative to H4 atom (100%)", "result": 97, "unit": "%"}, {"measurement": "inhibition of Plasmodium falciparum phosphoethanolamine methyltransferase", "setting": "[14]", "result": "inhibits"}, {"measurement": "CC50", "setting": "in vitro [15]; CC50", "result": 50, "unit": "µM"}, {"measurement": "EC50", "setting": "Junin (JUNV)", "result": 16.9, "unit": "µM"}, {"measurement": "EC50", "setting": "Chikungunya (CHIV)", "result": 18.4, "unit": "µM"}, {"measurement": "EC50", "setting": "Ebola virus (EBOV)", "result": 2.6, "unit": "µM"}, {"measurement": "CC50", "setting": "in vitro [16]", "result": "> 100", "unit": "µM"}, {"measurement": "inhibition of purified human cathepsin B activity", "setting": "[17]", "result": "directly inhibit cathepsin B activity in a dose dependent manner"}, {"measurement": "EC50", "setting": "[18]", "result": 4.6, "unit": "µM"}, {"measurement": "cell-associated Lysosensor fluorescence (acidic organelles)", "setting": "[19]", "result": "markedly decreased"}, {"measurement": "active caspase-1 after LF-PA treatment (FLICA)", "setting": "caspase-1", "result": "not detected"}, {"measurement": "CC50", "setting": "in vitro [20]", "result": "> 10", "unit": "µM"}]}
{"compound": "CCNCc1cc(Nc2ccnc3cc(Cl)ccc23)ccc1O", "note": "[DEAQ, Desethyl-Amodiaquine]", "values": [{"measurement": "terminal half-life", "setting": "[21]; po", "result": "220 to 432", "unit": "h"}, {"measurement": "Cmax (maximal amounts of drug in the blood after oral administration)", "setting": "[21]", "result": "low μM range"}, {"measurement": "EC50", "setting": "[22]", "result": 5, "unit": "µM"}, {"measurement": "EC50", "setting": "Ebola virus (Kikwit); 24 h", "result": 2, "unit": "µM"}, {"measurement": "EC50", "setting": "Ebola virus (Kikwit); 48 h", "result": 4, "unit": "µM"}, {"measurement": "CC50", "setting": "in vitro [15]; CC50", "result": 50, "unit": "µM"}, {"measurement": "CC50", "setting": "in vitro [15]; CC50, 24 h", "result": "> 50", "unit": "µM"}, {"measurement": "CC50", "setting": "in vitro [15]; CC50, 48 h", "result": "> 50", "unit": "µM"}, {"measurement": "EC50", "setting": "Junin (JUNV)", "result": 13.8, "unit": "µM"}, {"measurement": "EC50", "setting": "Chikungunya (CHIV)", "result": 17.3, "unit": "µM"}, {"measurement": "EC50", "setting": "Ebola virus (EBOV)", "result": 2.1, "unit": "µM"}, {"measurement": "inhibition of purified human cathepsin B activity", "setting": "[17]", "result": "directly inhibit cathepsin B activity in a dose dependent manner"}]}
{"compound": "CCN(CC)CCCC(C)Nc1ccnc2cc(Cl)ccc12", "note": "(centres unmarked) [CQ, Chloroquine]", "values": [{"measurement": "EC50", "setting": "Ebola virus (Kikwit); 48 h", "result": 4.8, "unit": "µM"}, {"measurement": "inhibition of diphtheria toxin cell killing (multiplex hit)", "setting": "[5]", "result": "inhibited"}, {"measurement": "Ebola virus pathogenicity in cells", "setting": "Ebola virus", "result": "inhibit Ebola virus pathogenicity in cells"}, {"measurement": "CC50", "setting": "in vitro [15]; CC50", "result": 100, "unit": "µM"}, {"measurement": "EC50", "setting": "Ebola virus (EBOV)", "result": 2.5, "unit": "µM"}, {"measurement": "endosomal acidification", "setting": "endosomal acidification", "result": "prevent endosomal acidification"}, {"measurement": "inhibition of purified human cathepsin B activity", "setting": "[17]", "result": "weaker inhibitors"}, {"measurement": "CC50", "setting": "in vitro [23]", "result": 70, "unit": "µM"}]}
{"compound": "CCNCCCC(C)Nc1ccnc2cc(Cl)ccc12", "note": "(centres unmarked) [DECQ, Desethyl-Chloroquine]", "values": [{"measurement": "EC50", "setting": "Ebola virus (Kikwit); 48 h", "result": 7.3, "unit": "µM"}, {"measurement": "CC50", "setting": "in vitro [15]; CC50", "result": 100, "unit": "µM"}, {"measurement": "EC50", "setting": "Ebola virus (EBOV)", "result": 3.2, "unit": "µM"}, {"measurement": "inhibition of purified human cathepsin B activity", "setting": "[17]", "result": "weaker inhibitors"}, {"measurement": "CC50", "setting": "in vitro [23]", "result": 70, "unit": "µM"}]}
